Assay results from patent US11819476B2, “Rapamycin analogs and uses thereof” (Janssen Pharmaceutica NV, priority 2019, dated 2023).
“Also recorded” adds a separate entry of the source.

Experiments:
Format in all cases: cell-based
pS6K1 in MCF7 = assay: AlphaLISA Ultra pS6K1 Assay; conditions: Homo sapiens, 1.5 h; MCF7 cells, 90 min incubation
Method: Example 74: AlphaLISA Ultra pS6K1 Assay
Assay Protocol: • 1. Seed MCF-7 cells in Corning 3701 plate and incubate for 20˜24 hour. 12,000˜16,000 cells will be seeded in 36 μL medium per well. • 2. Change the culture medium with fresh medium and incubate for another 2 hours. • 3. Add 12 μL (4×) compounds into the cell plate by HAMILTON. Final DMSO concentration is 0.5%. Incubate for 90 minutes. • 4. Aspirate 38 μL by HAMILTON, 10 μL rest per well. • 5. Add 10 μL 2× lysis buffer using HAMILTON; total volume in wells is 20 μL. Allow cells to shake for 30 min. Cover plate by plastic foil and store plate at −80° C. up to analysis. • 6. Thaw cell lysate at RT and transfer 10 μL lysate to assay plate (Optiplate-384). • 7. Add 5 μL acceptor beads into assay plate and incubation for 2 hours • 8. Add 5 μL donor beads and incubation for 2 hours • 9. Count the plate by EnSpire Multimode Plate Reader

mTORC1 over mTORC2 = assay: mTORC1 selectivity over mTORC2 at 24 hrs (pS6K1 and pAKT assays); conditions: for mTORC1 selective @ 24 hrs: selectivity for mTORC1 over mTORC2 at 24 hrs
Method: (§1) Example 76: Western Blot Based pS6K1 and pAKT Assay at 24 and 48 Hour Timepoints
(§2) Assay Protocol: • 1. Seed six well plate with 500,000 PC3 cells per well and incubate for […]. • 2. Add compounds into the cell plate. Incubate for 24 to 48 hours. • 4. Plate is placed on ice and the media is removed via aspiration. The wells are washed with 1 mL of 1×PBS and then fully aspirated. • 5. 110 μL of 1% Triton Lysis Buffer is added and each well is scraped vigorously. • 6. Cell homogenates are transferred to 1.5 mL eppendorf tubes on ice and spun down at 4° C. for 10 minutes at 10,000 rpm. • 7. Protein concentration of resulting cell lysates were quantified utilizing a Bradford assay and the samples run analyzed via Western blot on 4-12% Bis/Tris gels with 1×MES buffer. • 8. The gels were transferred onto membranes at 50V for 100 minutes, blocked with Odyssey Blocking buffer for 30 minutes then incubated overnight with primary antibody (pS6K1 T389 Rabbit or pAkt S473 Rabbit) overnight at 4° C. on a rotator. • 9. The membranes were washed 3× with TBS-T with a 5 minute incubation between each wash then incubated with secondary antibody (LiCor IRDye 800 Donkey Anti Rabbit) for at least 30 minutes. • 10. The membranes were washed 3× with TBS-T with a 5 minute incubation between each wash. • 11. The gels were then incubated for 5 minutes with PBS at room temperature then imaged using a Li-Cor.
The compound numbers correspond to the compound numbers in Table 1.
Compounds that are not selective at the 24 hrs mark are indicated by “NO” in the “mTORC1 selective @ 24 hrs” column of Table 4. Compounds that partially retain selectivity for mTORC1 inhibition over mTORC2 are indicated by “Partial” in the “mTORC1 selective @ 24 hrs” column of Table 4.

[1] = test system: pAkt S473 in PC3 cells (mTORC2); assay: Western blot based pAKT assay (mTORC2 pathway); conditions: 24 hours
Method: as §1
as §2, with “The membranes were washed 3× with TBS-T with a 5 minute incubation between each wash then incubated with secondary antibody (LiCor IRDye 800 Donkey Anti Rabbit) for at least 30 minutes. • 10. The membranes were washed 3× with TBS-T with a 5 minute incubation between each wash. • 11. The gels were then incubated for 5 minutes with PBS at room temperature then imaged using a Li-Cor.” left out
The methods employed were substantially similar to those described above. Compounds were evaluated in PC3 cells. […] Cells are incubated with compounds of the present invention for various time periods (e.g., 5 minutes, 15 minutes, 30 minutes, 90 minutes, 24 hours, or 48 hours), and evaluated according to known methodologies, such as those herein described.

[2] = test system: pS6K1 T389 in PC3 cells (mTORC1 pathway); assay: Western blot based pS6K1 assay (mTORC1 pathway); conditions: 24 hours
Method: as §1, §2
PC3 cells were treated with everolimus (0.1 μM, 0.01 μM, and 0.001 μM) or I-9 ([…], 0.1 μM, 0.01 μM, and 0.001 μM) for 24 hours.
The methods employed were substantially similar to those described above. Compounds were evaluated in PC3 cells. Additional cell lines that may be used include Jurkat cells, wild-type mouse embryotic fibroblast (MEF) cells, tuberous sclerosis 2 (TSC2) negative (TSC−/−) MEF cells, and tuberous sclerosis 2 (TSC2) positive (TSC+/+) MEF cells. Cells are incubated with compounds of the present invention for various time periods (e.g., 5 minutes, 15 minutes, 30 minutes, 90 minutes, 24 hours, or 48 hours), and evaluated according to known methodologies, such as those herein described.

| Structure (SMILES) | IC50 (pS6K1 in MCF7) [nM] | mTORC1 selective @ 24 hrs (mTORC1 over mTORC2) | inhibition of mTORC2 (Akt phosphorylation, pAkt, Western blot) [1] | inhibition of the mTORC1 pathway (pS6K1, Western blot) [2] | selectivity over mTORC2 as measured by the impact of pAKT (mTORC1 over mTORC2; at 24 hours, depends on size of C-7 group) |
| --- | --- | --- | --- | --- | --- |
| CO[C@@H]1C[C@H](C[C@@H](C)[C@@H]2CC(=O)[C@H](C)/C=C(\C)[C@@H](O)[C@@H](OC)C(=O)[C@H](C)C[C@H](C)/C=C/C=C/C=C(\C)[C@@H](OCCOc3ccccc3)C[C@@H]3CC[C@@H](C)[C@@](O)(O3)C(=O)C(=O)N3CCCC[C@H]3C(=O)O2)CC[C@H]1OCCO [Example I-7, (26E,28E,30E,31E,38R,39S,40R,41R,43S,45S,47S,48S,49R,50R,59R)-49,59-dihydroxy-48-[(1R)-2-[(1S,3R,4R)-4-(2-hydroxyethoxy)-3-methoxy-cyclohexyl]-1-methyl-ethyl]-50-methoxy-38,39,40,41,51,52-hexamethyl-47-(2-phenoxyethoxy)-69,70-dioxa-60-azatricyclohexatriaconta-26,28,30(51),31(52)-tetraene-53,54,55,56,57-pentone] | 1 to 10 | Yes | – | – | – |
| CO[C@@H]1C[C@H](C[C@@H](C)[C@@H]2CC(=O)[C@H](C)/C=C(\C)[C@@H](O)[C@@H](OC)C(=O)[C@H](C)C[C@H](C)/C=C/C=C/C=C(\C)[C@@H](OCCOC3COC3)C[C@@H]3CC[C@@H](C)[C@@](O)(O3)C(=O)C(=O)N3CCCC[C@H]3C(=O)O2)CC[C@H]1OCCO [Example I-9, (23E,25E,27E,28E,34R,35S,36R,37R,39S,41S,43S,44S,46R,47R,56R)-46,56-dihydroxy-44-[(1R)-2-[(1S,3R,4R)-4-(2-hydroxyethoxy)-3-methoxy-cyclohexyl]-1-methyl-ethyl]-47-methoxy-34,35,36,37,48,49-hexamethyl-43-[2-(oxetan-3-yloxy)ethoxy]-67,68-dioxa-57-azatricyclohexatriaconta-23,25,27(48),28(49)-tetraene-50,51,52,53,54-pentone] | 0.1 to 1 | Yes | did not reduce | reduction in pS6K1; also recorded: moderate concentration dependent inhibition | – |
| CO[C@@H]1C[C@H](C[C@@H](C)[C@@H]2CC(=O)[C@H](C)/C=C(\C)[C@@H](O)[C@@H](OC)C(=O)[C@H](C)C[C@H](C)/C=C/C=C/C=C(\C)C(OCCCCS(N)(=O)=O)C[C@@H]3CC[C@@H](C)[C@@](O)(O3)C(=O)C(=O)N3CCCC[C@H]3C(=O)O2)CC[C@H]1OCCO (some centres unmarked) [Example I-19] | – | – | – | – | marked selectivity |
| CO[C@@H]1C[C@H](C[C@@H](C)[C@@H]2CC(=O)[C@H](C)/C=C(\C)[C@@H](O)[C@@H](OC)C(=O)[C@H](C)C[C@H](C)/C=C/C=C/C=C(\C)[C@@H](OCCCCCO)C[C@@H]3CC[C@@H](C)[C@@](O)(O3)C(=O)C(=O)N3CCCC[C@H]3C(=O)O2)CC[C@H]1O [Example I-35, (21E,23E,25E,26E,33R,34S,35R,36R,38S,40S,42S,43S,44R,45R,54R)-44,54-dihydroxy-43-[(1R)-2-[(1S,3R,4R)-4-hydroxy-3-methoxy-cyclohexyl]-1-methyl-ethyl]-42-(5-hydroxypentoxy)-45-methoxy-33,34,35,36,46,47-hexamethyl-65,66-dioxa-55-azatricyclohexatriaconta-21,23,25(46),26(47)-tetraene-48,49,50,51,52-pentone] | 0.1 to 1 | Yes | – | – | – |
| CO[C@@H]1C[C@H](C[C@@H](C)[C@@H]2CC(=O)[C@H](C)/C=C(\C)[C@@H](O)[C@@H](OC)C(=O)[C@H](C)C[C@H](C)/C=C/C=C/C=C(\C)[C@@H](OCCCO)C[C@@H]3CC[C@@H](C)[C@@](O)(O3)C(=O)C(=O)N3CCCC[C@H]3C(=O)O2)CC[C@H]1O [Example I-36, (21E,23E,25E,26E,31R,32S,33R,34R,36S,38S,40S,41S,42S,43R,52R)-42,52-dihydroxy-41-[(1R)-2-[(1S,3R,4R)-4-hydroxy-3-methoxy-cyclohexyl]-1-methyl-ethyl]-40-(3-hydroxypropoxy)-43-methoxy-31,32,33,34,44,45-hexamethyl-63,64-dioxa-53-azatricyclohexatriaconta-21,23,25(44),26(45)-tetraene-46,47,48,49,50-pentone] | 0.1 to 1 | Yes | – | – | – |
| CO[C@@H]1C[C@H](C[C@@H](C)[C@@H]2CC(=O)[C@H](C)/C=C(\C)[C@@H](O)[C@@H](OC)C(=O)[C@H](C)C[C@H](C)/C=C/C=C/C=C(\C)[C@@H](OCCS(=O)(=O)CCS(=O)(=O)CCO)C[C@@H]3CC[C@@H](C)[C@@](O)(O3)C(=O)C(=O)N3CCCC[C@H]3C(=O)O2)CC[C@H]1O [Example I-65, (21E,23E,25E,26E,34R,35S,36R,37R,39S,41S,43S,44S,45R,46R,55R)-45,55-dihydroxy-43-[2-[2-(2-hydroxyethylsulfonyl)ethylsulfonyl]ethoxy]-44-[(1R)-2-[(1S,3R,4R)-4-hydroxy-3-methoxy-cyclohexyl]-1-methyl-ethyl]-46-methoxy-34,35,36,37,47,48-hexamethyl-70,71-dioxa-56-azatricyclohexatriaconta-21,23,25(47),26(48)-tetraene-49,50,51,52,53-pentone] | – | – | – | strong inhibition | – |
| CO[C@H]1C[C@@H]2CC[C@@H](C)[C@@](O)(O2)C(=O)C(=O)N2CCCC[C@H]2C(=O)O[C@H]([C@H](C)C[C@@H]2CC[C@@H](OCCO)[C@H](OC)C2)CC(=O)[C@H](C)/C=C(\C)[C@@H](O)[C@@H](OC)C(=O)[C@H](C)C[C@H](C)/C=C/C=C/C=C/1C [everolimus, reference compound] | – | – | inhibition of S6K1 phosphorylation (S^473) | reduction in pS6K1; also recorded: strong inhibition | – |
